Results taken from publication PMC4994520 (European journal of medicinal chemistry, 2012).

Target: human PDE5 (Homo sapiens, UniProt O76074)
Experiment: PDE5 inhibition, IMAP fluorescence polarization phosphodiesterase assay
Format: biochemical
Conditions: for inhibition at 10 µM: read-out: % PDE5 inhibition at 10 μM

| SMILES | inhibition at 10 µM | IC50 | % PDE5 inhibition at 10 μM (10 μM, triplicate) |
| --- | --- | --- | --- |
| COC(=O)[C@H]1Cc2c([nH]c3ccccc23)[C@@H](c2ccc(Br)cc2)N1 [Compound 1, Methyl (1R,3R)-1-(4-bromophenyl)-2,3,4,9-tetrahydro-1H-β-carboline-3-carboxylate] | 10% |  |  |
| COC(=O)[C@H]1Cc2c([nH]c3ccccc23)[C@H](c2ccc(Br)cc2)N1 [Compound 2, Methyl (1S,3R)-1-(4-bromophenyl)-2,3,4,9-tetrahydro-1H-β-carboline-3-carboxylate] | 10% |  |  |
| COC(=O)[C@@H]1Cc2c([nH]c3ccccc23)[C@H](c2ccc(Br)cc2)N1 [Compound 3, Methyl (1S,3S)-1-(4-bromophenyl)-2,3,4,9-tetrahydro-1H-β-carboline-3-carboxylate] | 17% |  |  |
| CCN1C(=O)[C@@H]2Cc3c([nH]c4ccccc34)[C@H](c3ccc(Br)cc3)N2C1=O [Compound 7, (5S,11aS)-5-(4-Bromophenyl)-2-ethyl-5,6,11,11a-tetrahydro-1H-imidazo[1′,5′:1,6]pyrido[3,4-b]indole-1,3(2H)-dione] | 79.8% |  |  |
| CCCCN1C(=O)[C@H]2Cc3c([nH]c4ccccc34)[C@H](c3ccc(Br)cc3)N2C1=O [Compound 10, (5S,11aR)-5-(4-Bromophenyl)-2-butyl-5,6,11,11a-tetrahydro-1H-imidazo[1′,5′:1,6]pyrido[3,4-b]indole-1,3(2H)-dione] | 72.1% | > 10000 nM |  |
| CCCCN1C(=O)[C@@H]2Cc3c([nH]c4ccccc34)[C@H](c3ccc(Br)cc3)N2C1=O [Compound 11, (5S,11aS)-5-(4-Bromophenyl)-2-butyl-5,6,11,11a-tetrahydro-1H-imidazo[1′,5′:1,6]pyrido[3,4-b]indole-1,3(2H)-dione] | 81.5% | > 10000 nM |  |
| CCCCN1C(=O)[C@@H]2Cc3c([nH]c4ccccc34)[C@@H](c3ccc(Br)cc3)N2C1=O [Compound 12, (5R,11aS)-5-(4-Bromophenyl)-2-butyl-5,6,11,11a-tetrahydro-1H-imidazo[1′,5′:1,6]pyrido[3,4-b]indole-1,3(2H)-dione] | 106% |  |  |
| CCC(C)N1C(=O)[C@H]2Cc3c([nH]c4ccccc34)[C@H](c3ccc(Br)cc3)N2C1=O (stereo partly drawn) [Compound 14, (5S,11aR)-5-(4-Bromophenyl)-2-sec-butyl-5,6,11,11a-tetrahydro-1H-imidazo[1′,5′:1,6]pyrido[3,4-b]indole-1,3(2H)-dione] | 67% | 6000 nM |  |
| CC(C)(C)N1C(=O)[C@@H]2Cc3c([nH]c4ccccc34)[C@H](c3ccc(Br)cc3)N2C1=O [Compound 19, (5S,11aS)-5-(4-Bromophenyl)-2-tert-butyl-5-(4-bromophenyl)-5,6,11,11a-tetrahydro-1H-imidazo[1′,5′:1,6]pyrido[3,4-b]indole-1,3(2H)-dione] |  |  | 38% |
| COC(=O)[C@H]1Cc2c([nH]c3ccccc23)[C@@H](c2ccc(Br)cc2)N1C(=O)CCl [Compound 21, Methyl (1R,3R)-1-(4-bromophenyl)-2-(chloroacetyl)-2,3,4,9-tetrahydro-1H-β-carboline-3-carboxylate] | 25% | > 10000 nM |  |
| COC(=O)[C@@H]1Cc2c([nH]c3ccccc23)[C@H](c2ccc(Br)cc2)N1C(=O)CCl [Compound 23, Methyl (1S,3S)-1-(4-bromophenyl)-2-(2-chloroacetyl)-2,3,4,9-tetrahydro-1H-β-carboline-3-carboxylate] | 19% | > 10000 nM |  |
| CN1CC(=O)N2[C@@H](c3ccc(Br)cc3)c3[nH]c4ccccc4c3C[C@@H]2C1=O [Compound 26, (6S,12aR)-6-(4-Bromophenyl)-2-methyl-2,3,6,7,12,12a-hexahydropyrazino [1′,2′:1,6]pyrido[3,4-b]indole-1,4-dione] | 94% | 6600 nM |  |
| CCCCN1CC(=O)N2[C@@H](c3ccc(Br)cc3)c3[nH]c4ccccc4c3C[C@@H]2C1=O [Compound 34, (6S,12aR)-2-Butyl-6-(4-bromophenyl)-2,3,6,7,12,12a-hexahydropyrazino [1′,2′:1,6]pyrido[3,4-b]indole-1,4-dione] | 81.5% | 6600 nM |  |
| CCCCN1CC(=O)N2[C@H](c3ccc(Br)cc3)c3[nH]c4ccccc4c3C[C@H]2C1=O [Compound 36, (6R,12aS)-2-Butyl-6-(4-bromophenyl)-2,3,6,7,12,12a-hexahydropyrazino [1′,2′:1,6]pyrido[3,4-b]indole-1,4-dione] | 92% |  |  |
| CC(C)(C)N1CC(=O)N2[C@H](c3ccc(Br)cc3)c3[nH]c4ccccc4c3C[C@@H]2C1=O [Compound 37, (6R,12aR)-6-(4-Bromophenyl)-2-tert-butyl-2,3,6,7,12,12a-hexahydropyrazino [1′,2′:1,6]pyrido[3,4-b]indole-1,4-dione] | 30% | > 10000 nM |  |
| CC(C)(C)N1CC(=O)N2[C@@H](c3ccc(Br)cc3)c3[nH]c4ccccc4c3C[C@@H]2C1=O [Compound 38, (6S,12aR)-6-(4-Bromophenyl)-2-tert-butyl-2,3,6,7,12,12a-hexahydropyrazino [1′,2′:1,6]pyrido[3,4-b]indole-1,4-dione] | 27% |  |  |

Now from value to molecule:

| inhibition at 10 µM | IC50 | % PDE5 inhibition at 10 μM (10 μM, triplicate) | SMILES |
| --- | --- | --- | --- |
| 75% | 4200 nM |  | COC(=O)[C@@H]1Cc2c([nH]c3ccccc23)[C@@H](c2ccc(Br)cc2)N1 [Compound 4, Methyl (1R,3S)-1-(4-bromophenyl)-2,3,4,9-tetrahydro-1H-β-carboline-3-carboxylate] |
| 94.4% | 2800 nM |  | CCN1C(=O)[C@H]2Cc3c([nH]c4ccccc34)[C@@H](c3ccc(Br)cc3)N2C1=O [Compound 5, (5R,11aR)-5-(4-Bromophenyl)-2-ethyl-5,6,11,11a-tetrahydro-1H-imidazo[1′,5′:1,6]pyrido[3,4-b]indole-1,3(2H)-dione] |
| 89.3% | 3900 nM |  | CCN1C(=O)[C@H]2Cc3c([nH]c4ccccc34)[C@H](c3ccc(Br)cc3)N2C1=O [Compound 6, (5S,11aR)-5-(4-Bromophenyl)-2-ethyl-5,6,11,11a-tetrahydro-1H-imidazo[1′,5′:1,6]pyrido[3,4-b]indole-1,3(2H)-dione] |
| 98.7% | 230 nM |  | CCCCN1C(=O)[C@H]2Cc3c([nH]c4ccccc34)[C@@H](c3ccc(Br)cc3)N2C1=O [Compound 9, (5R,11aR)-5-(4-Bromophenyl)-2-butyl-5,6,11,11a-tetrahydro-1H-imidazo[1′,5′:1,6]pyrido[3,4-b]indole-1,3(2H)-dione] |
| 83% | 370 nM |  | CCC(C)N1C(=O)[C@H]2Cc3c([nH]c4ccccc34)[C@@H](c3ccc(Br)cc3)N2C1=O (stereo partly drawn) [Compound 13, (5R,11aR)-5-(4-Bromophenyl)-2-sec-butyl-5,6,11,11a-tetrahydro-1H-imidazo[1′,5′:1,6]pyrido[3,4-b]indole-1,3(2H)-dione] |
| 72% | 3300 nM |  | CCC(C)N1C(=O)[C@@H]2Cc3c([nH]c4ccccc34)[C@H](c3ccc(Br)cc3)N2C1=O (stereo partly drawn) [Compound 15, (5S,11aS)-5-(4-Bromophenyl)-2-sec-butyl-5,6,11,11a-tetrahydro-1H-imidazo[1′,5′:1,6]pyrido[3,4-b]indole-1,3(2H)-dione] |
| 92% | 150 nM |  | CCC(C)N1C(=O)[C@@H]2Cc3c([nH]c4ccccc34)[C@@H](c3ccc(Br)cc3)N2C1=O (stereo partly drawn) [Compound 16, (5R,11aS)-5-(4-Bromophenyl)-2-sec-butyl-5,6,11,11a-tetrahydro-1H-imidazo[1′,5′:1,6]pyrido[3,4-b]indole-1,3(2H)-dione] |
| 91% | 270 nM |  | CC(C)(C)N1C(=O)[C@H]2Cc3c([nH]c4ccccc34)[C@@H](c3ccc(Br)cc3)N2C1=O [Compound 17, (5R,11aR)-5-(4-Bromophenyl)-2-tert-butyl-5,6,11,11a-tetrahydro-1H-imidazo[1′,5′:1,6]pyrido[3,4-b]indole-1,3(2H)-dione] |
| 78% | 2200 nM |  | CC(C)(C)N1C(=O)[C@H]2Cc3c([nH]c4ccccc34)[C@H](c3ccc(Br)cc3)N2C1=O [Compound 18, (5S,11aR)-5-(4-Bromophenyl)-2-tert-butyl-5,6,11,11a-tetrahydro-1H-imidazo[1′,5′:1,6]pyrido[3,4-b]indole-1,3(2H)-dione] |
| 94% | 270 nM |  | CC(C)(C)N1C(=O)[C@@H]2Cc3c([nH]c4ccccc34)[C@@H](c3ccc(Br)cc3)N2C1=O [Compound 20, (5R,11aS)-5-(4-Bromophenyl)-2-tert-butyl-5,6,11,11a-tetrahydro-1H-imidazo[1′,5′:1,6]pyrido[3,4-b]indole-1,3(2H)-dione] |
| 87% | 1900 nM |  | CN1CC(=O)N2[C@@H](c3ccc(Br)cc3)c3[nH]c4ccccc4c3C[C@H]2C1=O [Compound 27, (6S,12aS)-6-(4-Bromophenyl)-2-methyl-2,3,6,7,12,12a-hexahydropyrazino [1′,2′:1,6]pyrido[3,4-b]indole-1,4-dione] |
| 97.9% | 1900 nM |  | CCN1CC(=O)N2[C@@H](c3ccc(Br)cc3)c3[nH]c4ccccc4c3C[C@@H]2C1=O [Compound 30, (6S,12aR)-2-Ethyl-6-(4-bromophenyl)-2,3,6,7,12,12a-hexahydropyrazino [1′,2′:1,6]pyrido[3,4-b]indole-1,4-dione] |
| 83% | 220 nM |  | CCN1CC(=O)N2[C@@H](c3ccc(Br)cc3)c3[nH]c4ccccc4c3C[C@H]2C1=O [Compound 31, (6S,12aS)-2-Ethyl-6-(4-bromophenyl)-2,3,6,7,12,12a-hexahydropyrazino [1′,2′:1,6]pyrido[3,4-b]indole-1,4-dione] |
| 98.7% | < 10 nM |  | CCN1CC(=O)N2[C@H](c3ccc(Br)cc3)c3[nH]c4ccccc4c3C[C@H]2C1=O [Compound 32, (6R,12aS)-2-Ethyl-6-(4-bromophenyl)-2,3,6,7,12,12a-hexahydropyrazino [1′,2′:1,6]pyrido[3,4-b]indole-1,4-dione] |
| 80% | 5900 nM |  | CCCCN1CC(=O)N2[C@@H](c3ccc(Br)cc3)c3[nH]c4ccccc4c3C[C@H]2C1=O [Compound 35, (6S,12aS)-2-Butyl-6-(4-bromophenyl)-2,3,6,7,12,12a-hexahydropyrazino[1′,2′:1,6]pyrido[3,4-b]indole-1,4-dione] |
